This series is described as follows: solvent given as SMILES.

Consider `CCOC(=O)CN(CC(=O)OCC)c1ccc(-c2cc(-c3ccncc3)nc(-c3ccncc3)c2)cc1`, for which the fluorescence lifetime reads like this: (in CC#N) 5.84 ns; (in CCOC(C)=O) 3.77 ns; (in CN(C)C=O) 6.33 ns; (in CS(C)=O) 6.78 ns; (in c1ccccc1) 2 ns.

Turning to `N#C[Se]CCCCCOc1ccc2ccc(=O)oc2c1`, the fluorescence lifetime is, setting by setting: (in C1CCCCC1) 0.16 ns; (in C1CCOC1) 1.17 ns; (in C1COCCO1) 0.17 ns; (in CC#N) 0.56 ns; (in CCCCCCC) 0.16 ns; (in CCO) 0.43 ns. The same compound came in with a fluorescence lifetime (in CN(C)C=O) of 1.02 ns, a fluorescence lifetime (in CO) of 0.44 ns, a fluorescence lifetime (in O) of 1.75 ns and a fluorescence lifetime (in OCCO) of 1.46 ns.

As for `Oc1ccc2ccc(C3(O)C4CC5CC(C4)CC3C5)cc2c1` (stereo not given), the fluorescence lifetime (in CC#N) is 7.78 ns.

Take `C(#Cc1ccccc1)C(C#Cc1ccccc1)=Cc1ccc(C=C(C#Cc2ccccc2)C#Cc2ccccc2)cc1`: the fluorescence lifetime (in ClC(Cl)Cl) was 1.2 ns.

Regarding `c1ccc2nc3cccc(-c4ccc(-n5c6ccccc6c6ccccc65)cc4)c3cc2c1`, the fluorescence lifetime (in CC#N) came out at 10.6 ns, the fluorescence lifetime (in CCCCCC) was 0.2 ns, the fluorescence lifetime (in CCOCC) came to 0.2 ns and the fluorescence lifetime (in ClCCl) is 6.68 ns.

`c1ccc(-c2nnc(-c3ccc(N4c5ccccc5N(c5ccccc5)c5ccccc54)cc3)o2)cc1`: the fluorescence lifetime was determined as 9 ns (in Cc1ccccc1) and 7 ns (in c1cc(-n2c3ccccc3c3ccccc32)cc(-n2c3ccccc3c3ccccc32)c1).

In turn, `COc1ccc2cc(C#Cc3ccc([N+](=O)[O-])cc3)ccc2c1` gave a fluorescence lifetime (in C1CCOC1) of 0.57 ns, a fluorescence lifetime (in ClC(Cl)Cl) of 0.77 ns and a fluorescence lifetime (in ClCCl) of 0.32 ns.

With `NS(=O)(=O)c1ccc(N2N=C(c3ccc(O)cc3)CC2c2ccccc2)cc1` (stereo not given), the fluorescence lifetime (in C1CCOC1) worked out at 2.31 ns; the fluorescence lifetime (in C1COCCO1) is 2.36 ns; the fluorescence lifetime (in CC#N) came out at 2.38 ns; the fluorescence lifetime (in CC(C)O) was 1.86 ns; the fluorescence lifetime (in CCO) was determined as 1.93 ns; the fluorescence lifetime (in CCOC(C)=O) is 2.27 ns. For the same compound, the fluorescence lifetime (in CN(C)C=O) is 2.4 ns, the fluorescence lifetime (in CO) worked out at 1.62 ns, the fluorescence lifetime (in CS(C)=O) amounted to 2.45 ns and the fluorescence lifetime (in O) turned out to be 3.16 ns.

In the case of `N#Cc1c(-n2c3ccccc3c3cc(I)ccc32)c(-n2c3ccccc3c3cc(I)ccc32)c(C#N)c(-n2c3ccccc3c3cc(I)ccc32)c1-n1c2ccccc2c2cc(I)ccc21`, the fluorescence lifetime (in Cc1ccccc1) worked out at 0.3 ns.

Under “in ClCCl”, `COc1ccc(C#Cc2c3cc4ccccc4cc3c(C#Cc3ccc(OC)cc3)c3cc4ccccc4cc23)cc1` registered a fluorescence lifetime of 4.6 ns.

Regarding `CCOC(=O)C1=CN(Cc2ccccc2)C=C(C(=O)OCC)C1`, the fluorescence lifetime (in C1CCOC1) is 25.6 ns and the fluorescence lifetime (in CO) was determined as 28.2 ns.

`COc1cc(/C=C/c2nc(N3CCOCC3)c3c([n+]2[O-])CCCC3)cc(OC)c1OC`: where the note is “in ClCCl”, the fluorescence lifetime was 8.5 ns.

For `COc1ccc(N(c2ccc(OC)cc2)c2ccc(-c3ccc(-c4ccc(-c5ccc(-c6ccc(N(c7ccc(OC)cc7)c7ccc(OC)cc7)cc6)s5)c5nsnc45)s3)cc2)cc1`, for the setting “in ClC(Cl)Cl”, the fluorescence lifetime was 4.9 ns.

Under “in ClC(Cl)Cl”, `Cc1cc(C2=Cc3cccc[n+]3[B-](F)(F)O2)ccc1N(C)C` registered a fluorescence lifetime of 2.74 ns.

The compound `CC(C)(C)c1ccc(C2=C(c3ccc(-n4c5ccccc5c5ccccc54)cc3)S(=O)(=O)c3c2sc(-c2ccc(-n4c5ccccc5c5ccccc54)cc2)c3-c2ccc(C(C)(C)C)cc2)cc1` gave a fluorescence lifetime (in C1CCOC1) of 0.47 ns.

The compound `CC(C)c1ccc2ccc3c(C(C)C)ccc4ccc1c2c43` came in with a fluorescence lifetime (in CCCCCC) of 52.9 ns, a fluorescence lifetime (in CO) of 85.7 ns and a fluorescence lifetime (in ClCCl) of 40.3 ns.

As for `CCC1(CC)c2cc(-c3ccc(C(C)(C)C)cc3)ccc2-c2ccc(-c3ccc4c(c3)C(CC)(CC)c3cc(-c5ccc6c(c5)C(CC)(CC)c5cc(-c7ccc(C(C)(C)C)cc7)ccc5-6)ccc3-4)cc21`, the fluorescence lifetime runs as follows: (in CCCCC) 0.65 ns; (in CCCCCC) 0.62 ns; (in CCCCCCC) 0.61 ns; (in CCCCCCCC) 0.64 ns; (in CCCCCCCCC) 0.62 ns; (in CCCCCCCCCC) 0.64 ns. In addition, the fluorescence lifetime is, setting by setting: (in CCCCCCCCCCCC) 0.64 ns; (in CCCCCCCCCCCCC) 0.65 ns; (in CCCCCCCCCCCCCCC) 0.64 ns; (in CCCCCCCCCCCCCCCC) 0.63 ns; (in CCCCCCCCCCO) 0.64 ns; (in CCCCCCCCCO) 0.64 ns. The fluorescence lifetime (in CCCCCCCCO) amounted to 0.63 ns; the fluorescence lifetime (in CCCCCCCO) turned out to be 0.64 ns; the fluorescence lifetime (in CCCCCCO) came out at 0.64 ns; the fluorescence lifetime (in CCCCCO) stood at 0.65 ns; the fluorescence lifetime (in CCCCO) was found to be 0.64 ns; the fluorescence lifetime (in CCCO) was 0.65 ns. The same compound displayed a fluorescence lifetime (in CCO) of 0.67 ns and a fluorescence lifetime (in CO) of 0.67 ns.

Consider `CC1(C)c2ccccc2-c2cc3c4cc(-n5c6ccccc6c6ccccc65)ccc4n(-c4ccc(-c5nc(-c6ccccc6)nc(-c6ccccc6)n5)cc4)c3cc21`, for which the fluorescence lifetime (in O=P(c1ccccc1)(c1ccccc1)c1ccccc1Oc1ccccc1P(=O)(c1ccccc1)c1ccccc1) amounted to 34 ns.

Regarding `CNC1=C2C=CC=[N+]2[B-](F)(F)n2cccc21`, the fluorescence lifetime runs as follows: (in C1CCCCC1) 4.67 ns; (in CC(C)=O) 0.726 ns; (in CCO) 0.774 ns; (in CCOC(C)=O) 2.04 ns; (in CO) 0.523 ns; (in OCC(F)(F)F) 1.4 ns.

As for `O=S(=O)([O-])CCC[n+]1c2ccccc2cc2ccccc21`, the fluorescence lifetime (in O) was determined as 31.2 ns.

With `CN(C)c1ccc(-c2cc(-c3ccc(C#N)cc3)nc(-c3ccccc3)n2)cc1`, the fluorescence lifetime (in ClC(Cl)Cl) was determined as 3.5 ns.

`CCCCCCCCCCCCCCCCOc1cc(C#Cc2ccc3ccccc3c2)c(OCCCCCCCCCCCCCCCC)cc1C#Cc1ccc(C=C(C#N)C#N)cc1`: the fluorescence lifetime runs as follows: (in Brc1ccccc1) 2.82 ns; (in C1CCCCC1) 1.92 ns; (in C1CCOC1) 0.98 ns; (in C1COCCO1) 3.1 ns; (in CCCCCC) 1.97 ns; (in CCCCCCCCO) 0.62 ns. In addition, the fluorescence lifetime is 2.73 ns (in CCCCOCCCC); 1.05 ns (in CCOC(C)=O); 3.33 ns (in CCOCC); 2.53 ns (in Cc1ccccc1); 1.94 ns (in ClC(Cl)(Cl)Cl); 2.26 ns (in ClC(Cl)Cl). The fluorescence lifetime (in ClCCl) amounted to 0.63 ns.

With `CC(C)(C)c1ccc(-c2c3cccc4c(-c5ccccc5)cc5c(-c6ccc(C(C)(C)C)cc6)c6cccc7c(-c8ccccc8)cc2c(c76)c5c43)cc1`, the fluorescence lifetime (in ClCCl) came to 2.98 ns.

(Values after the Deep4Chem optical property database.)
